Literature values as cited in PMC8364112 (Proceedings of the National Academy of Sciences of the …, 2021).

Tested on: PTH2R
Details: for mode of action on PTH2R: potent / mild / weak, ref [4], [16]

## PTH-related peptide [PTHrP]
[13]
  mode of action on PTH2R: weak
Ref [3], [4], [13]
  action on PTH2R: weak action on PTH2R

## parathyroid hormone (SVSEIQLMHNLGKHLNSMERVEWLRKKLQDVHNF; Parathyroid hormone; UniProt P01270 32-65, looked up, fragment) [PTH]
[13]
  mode of action on PTH2R: mild

B1: substitution of Ile5^P of PTH with a histidine: PTH with Ile5 substituted with a histidine (peptide, UniProt P01270 32-115, looked up, variant I5H)
Parathyroid hormone: SVSEHQLMHNLGKHLNSMERVEWLRKKLQDVHNFVALGAPLAPRDAGSQRPRKKEDNVLVESHEKSLGEADKADVNVLTKAKSQ
modifications: Parathyroid hormone
Ref [27]
  effect of position 5 substitution on potency on PTH2R: decreases the peptide potency
